Key:
Histone deacetylase = assay: Inhibition of HDAC activity in HeLa cell nuclear extract by fluorescent assay; format: protein assay, Homo sapiens
MCF7 = assay: Antiproliferative activity against human MCF7 cells; format: functional

IC50 (Histone deacetylase) [µM] | GI50 (MCF7) [µM] | SMILES
0.05 | 0.7 | O=C(/C=C/c1cnc(N2CCN(S(=O)(=O)c3ccc4ccccc4c3)CC2)s1)NO
> 100 | 4 | O=C(NO)c1cnc(N2CCN(Cc3ccccc3)CC2)s1
0.09 | 0.35 | Cc1ccc(S(=O)(=O)N2CCN(c3ncc(C(=O)NO)s3)CC2)cc1
11 | 15 | O=C(/C=C/c1cnc(N2CCN(S(=O)(=O)c3ccc(-c4ccccc4)cc3)CC2)s1)NO
0.4 | 10 | O=C(NO)c1cnc(N2CCN(S(=O)(=O)c3ccc([N+](=O)[O-])cc3)CC2)s1
0.16 | 4 | COc1ccc(S(=O)(=O)N2CCN(c3ncc(/C=C/C(=O)NO)s3)CC2)cc1OC
3.5 | 40 | O=C(NO)c1cnc(N2CCN(C(=O)c3ccccc3)CC2)s1
0.57 | 10 | O=C(NO)c1cnc(N2CCN(S(=O)(=O)c3ccccc3)CC2)s1
1.2 | 4 | O=C(NO)c1cnc(N2CCN(S(=O)(=O)c3ccc(OC(F)(F)F)cc3)CC2)s1
0.15 | 3.5 | O=C(NO)c1cnc(N2CCN(S(=O)(=O)c3ccc(F)cc3)CC2)s1
3.2 | 6 | O=C(/C=C/c1cnc(N2CCN(S(=O)(=O)c3ccc(OC(F)(F)F)cc3)CC2)s1)NO
2.8 | > 100 | CC(=O)N1CCN(c2ncc(C(=O)NO)s2)CC1
> 100 | > 100 | O=C(NO)c1cnc(N2CCN(CCc3ccccc3)CC2)s1
0.44 | 3 | O=C(/C=C/c1cnc(N2CCN(S(=O)(=O)c3ccccc3)CC2)s1)NO
0.2 | 1.8 | O=C(NO)c1cnc(N2CCN(S(=O)(=O)c3ccc(-c4ccccc4)cc3)CC2)s1
0.07 | 2 | COc1ccc(S(=O)(=O)N2CCN(c3ncc(C(=O)NO)s3)CC2)cc1OC
4.7 | 2.5 | O=C(/C=C/c1cnc(N2CCN(S(=O)(=O)c3ccc(F)cc3)CC2)s1)NO
1.6 | 5 | O=C(/C=C/c1cnc(N2CCN(S(=O)(=O)c3ccc([N+](=O)[O-])cc3)CC2)s1)NO
0.55 | 2 | Cc1ccc(S(=O)(=O)N2CCN(c3ncc(/C=C/C(=O)NO)s3)CC2)cc1
32 | 20 | O=C(NO)c1cnc(N2CCN(C(=O)Cc3ccccc3)CC2)s1
0.22 | 2 | O=C(NO)c1cnc(N2CCN(S(=O)(=O)c3ccc4ccccc4c3)CC2)s1
15 | 3 | O=C(/C=C/c1cnc(N2CCN(S(=O)(=O)c3ccc(C(F)(F)F)cc3)CC2)s1)NO
> 100 | > 100 | CN1CCN(c2ncc(C(=O)NO)s2)CC1
2.6 | 4 | O=C(NO)c1cnc(N2CCN(S(=O)(=O)c3ccc(C(F)(F)F)cc3)CC2)s1

Source: ChEMBL document CHEMBL1140461, “Design and synthesis of thiazole-5-hydroxamic acids as novel histone deacetylase inhibitors” (Bioorg Med Chem Lett, 2007)
